Results as given in ChEMBL document CHEMBL5726728, “T-type calcium channel modulator and uses thereof” (2019).

Columns and labels:
[1] = molecular target: Cannabinoid receptor 1 (Rattus norvegicus, UniProt P20272); experiment: (§1) As used herein, the term T-type calcium channel blocker refers to a compound that can modulate, in particular inhibit or reduce activation of T-type calcium channels. […] The term about refers to ±20%, typically ±10%, and often ±5% of the numeric value.
[2] = molecular target: Cannabinoid receptor 2 (Homo sapiens, UniProt P34972); experiment: as §1
Chain of Cannabinoid receptor 2 (P34972 whole entry): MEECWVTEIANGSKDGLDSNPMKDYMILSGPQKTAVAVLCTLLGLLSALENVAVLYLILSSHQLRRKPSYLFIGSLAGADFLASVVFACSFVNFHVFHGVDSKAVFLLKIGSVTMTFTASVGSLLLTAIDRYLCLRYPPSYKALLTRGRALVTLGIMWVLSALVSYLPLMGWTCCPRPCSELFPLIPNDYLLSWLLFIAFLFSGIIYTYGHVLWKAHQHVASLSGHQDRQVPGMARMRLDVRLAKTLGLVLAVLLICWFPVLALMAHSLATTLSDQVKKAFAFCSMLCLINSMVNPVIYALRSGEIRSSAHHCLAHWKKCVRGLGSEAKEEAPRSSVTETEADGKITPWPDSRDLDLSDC

Chain of Cannabinoid receptor 1 (P20272 whole entry): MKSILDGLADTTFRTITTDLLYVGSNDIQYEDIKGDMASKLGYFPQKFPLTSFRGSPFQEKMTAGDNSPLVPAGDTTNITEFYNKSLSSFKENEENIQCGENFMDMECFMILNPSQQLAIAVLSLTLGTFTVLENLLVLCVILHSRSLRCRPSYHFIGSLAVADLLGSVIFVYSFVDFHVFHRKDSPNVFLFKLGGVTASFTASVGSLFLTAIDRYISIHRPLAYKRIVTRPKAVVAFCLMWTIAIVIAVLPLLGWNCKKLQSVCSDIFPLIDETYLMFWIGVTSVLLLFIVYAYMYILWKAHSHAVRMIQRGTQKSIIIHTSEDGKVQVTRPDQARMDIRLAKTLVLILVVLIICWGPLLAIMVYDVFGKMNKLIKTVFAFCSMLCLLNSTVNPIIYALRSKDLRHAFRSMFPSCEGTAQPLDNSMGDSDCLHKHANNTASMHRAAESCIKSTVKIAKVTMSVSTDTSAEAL

## CCCCCn1c2ccccc2c2cc(C(=O)N3CCN(CC(=O)NC(C)(C)C)CC3)ccc21
[1]
  Ki: 15 nM
[2]
  Ki: 1970 nM
